ChEMBL document CHEMBL3745631, “Discovery of highly potent and selective Bruton's tyrosine kinase inhibitors: Pyridazinone analogs with improved metabolic stability” (Bioorg Med Chem Lett, 2016)

How the values were obtained:
Liver microsome = experiment: Intrinsic clearance in human liver microsomes at 1 uM by LC-MS/MS analysis in presence of NADPH; format: ADME
Hepatocyte = experiment: Intrinsic clearance in human hepatocytes at 1 uM by LC-MS/MS analysis; format: ADME, cell-based
Monocyte = experiment: Inhibition of IC-induced IL-1beta release in human monocytes
[1] = Oral bioavailability in rat at 5 mg/kg by LC-MS/MS analysis; format: ADME, organism-based; conditions: in vivo
[2] = target: Sphingosine kinase 1 (Homo sapiens) (UniProt Q9NYA1); experiment: Inhibition of SPHK1 (unknown origin) at 1 uM
[3] = target: Tyrosine-protein kinase Lyn (Homo sapiens) (UniProt P07948); experiment: Inhibition of LYN (unknown origin) at 1 uM
[4] = target: Serine/threonine-protein kinase PAK 4 (Homo sapiens) (UniProt O96013); experiment: Inhibition of PAK4 (unknown origin) at 1 uM
[5] = tested on: Epidermal growth factor receptor (Homo sapiens), P00533 [L858R,T790M]; experiment: Inhibition of EGFR T790M,L858R mutant (unknown origin) at 1 uM; format: protein assay
Chain of Epidermal growth factor receptor (Homo sapiens), P00533 [L858R,T790M] (P00533 whole entry T790M/L858R, looked up): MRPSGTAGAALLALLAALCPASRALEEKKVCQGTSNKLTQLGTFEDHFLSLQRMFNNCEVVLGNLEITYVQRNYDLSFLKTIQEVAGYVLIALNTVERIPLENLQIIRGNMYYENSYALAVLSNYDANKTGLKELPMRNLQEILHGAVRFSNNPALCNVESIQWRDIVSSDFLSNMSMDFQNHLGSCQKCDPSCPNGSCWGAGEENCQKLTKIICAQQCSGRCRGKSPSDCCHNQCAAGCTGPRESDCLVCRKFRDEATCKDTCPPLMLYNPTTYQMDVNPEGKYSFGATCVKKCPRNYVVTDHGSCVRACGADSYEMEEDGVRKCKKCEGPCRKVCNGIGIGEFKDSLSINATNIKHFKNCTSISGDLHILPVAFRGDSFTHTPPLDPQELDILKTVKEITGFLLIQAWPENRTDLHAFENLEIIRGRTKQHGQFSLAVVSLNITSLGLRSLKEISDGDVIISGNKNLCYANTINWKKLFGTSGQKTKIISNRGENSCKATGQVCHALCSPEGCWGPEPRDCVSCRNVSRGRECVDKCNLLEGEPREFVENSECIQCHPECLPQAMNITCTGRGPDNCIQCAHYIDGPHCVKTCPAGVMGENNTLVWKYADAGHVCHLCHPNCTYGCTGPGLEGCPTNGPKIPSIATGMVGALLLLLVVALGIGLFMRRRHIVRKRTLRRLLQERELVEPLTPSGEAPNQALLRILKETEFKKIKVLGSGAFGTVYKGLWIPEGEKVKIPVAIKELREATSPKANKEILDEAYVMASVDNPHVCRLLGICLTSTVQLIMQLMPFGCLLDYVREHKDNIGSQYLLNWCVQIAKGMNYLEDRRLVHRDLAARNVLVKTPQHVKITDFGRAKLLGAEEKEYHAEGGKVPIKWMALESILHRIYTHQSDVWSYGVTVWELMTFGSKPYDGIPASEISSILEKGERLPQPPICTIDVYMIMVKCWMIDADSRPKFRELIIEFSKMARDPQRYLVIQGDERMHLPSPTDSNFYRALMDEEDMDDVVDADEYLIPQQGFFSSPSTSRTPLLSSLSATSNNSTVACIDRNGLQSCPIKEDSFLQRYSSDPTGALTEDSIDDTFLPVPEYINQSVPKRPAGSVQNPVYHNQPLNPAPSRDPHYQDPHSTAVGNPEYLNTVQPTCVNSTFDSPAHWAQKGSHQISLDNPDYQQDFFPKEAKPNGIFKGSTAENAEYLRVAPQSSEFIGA

[6] = target: Calcium/calmodulin-dependent protein kinase type 1D (Homo sapiens) (UniProt Q8IU85); experiment: Inhibition of CaMK1 delta (unknown origin) at 1 uM
[7] = target: Dual specificity protein kinase CLK2 (Homo sapiens) (UniProt P49760); experiment: Inhibition of CLK2 (unknown origin) at 1 uM
[8] = target: Cyclin-dependent kinase 7/ cyclin H (Homo sapiens) (UniProt P51946+P50613); experiment: Inhibition of CDK7/cyclinH (unknown origin) at 1 uM; format: protein-complex assay
[9] = target: Protein kinase C eta type (Homo sapiens) (UniProt P24723); experiment: Inhibition of PKCeta (unknown origin) at 1 uM
[10] = target: Tyrosine-protein kinase Tec (Homo sapiens, UniProt P42680); experiment: Inhibition of TEC (unknown origin)
[11] = target: Ephrin type-B receptor 1 (Homo sapiens) (UniProt P54762); experiment: Inhibition of EphB1 (unknown origin) at 1 uM
[12] = target: Dual specificity mitogen-activated protein kinase kinase 6 (Homo sapiens) (UniProt P52564); experiment: Inhibition of MKK6 (unknown origin) at 1 uM
Chain of Dual specificity mitogen-activated protein kinase kinase 6 (Homo sapiens) (P52564 whole entry): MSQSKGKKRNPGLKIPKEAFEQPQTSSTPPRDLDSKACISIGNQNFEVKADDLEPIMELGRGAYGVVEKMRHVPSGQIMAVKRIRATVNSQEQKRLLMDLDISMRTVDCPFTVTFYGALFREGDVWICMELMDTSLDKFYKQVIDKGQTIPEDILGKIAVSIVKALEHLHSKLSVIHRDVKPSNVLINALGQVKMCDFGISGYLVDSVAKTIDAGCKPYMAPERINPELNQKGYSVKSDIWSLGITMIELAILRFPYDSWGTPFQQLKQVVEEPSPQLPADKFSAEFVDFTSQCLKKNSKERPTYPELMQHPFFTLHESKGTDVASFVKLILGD

[13] = target: Serine/threonine-protein kinase Nek1 (Homo sapiens) (UniProt Q96PY6); experiment: Inhibition of NEK1 (unknown origin) at 1 uM
Chain of Serine/threonine-protein kinase Nek1 (Homo sapiens) (Q96PY6 whole entry): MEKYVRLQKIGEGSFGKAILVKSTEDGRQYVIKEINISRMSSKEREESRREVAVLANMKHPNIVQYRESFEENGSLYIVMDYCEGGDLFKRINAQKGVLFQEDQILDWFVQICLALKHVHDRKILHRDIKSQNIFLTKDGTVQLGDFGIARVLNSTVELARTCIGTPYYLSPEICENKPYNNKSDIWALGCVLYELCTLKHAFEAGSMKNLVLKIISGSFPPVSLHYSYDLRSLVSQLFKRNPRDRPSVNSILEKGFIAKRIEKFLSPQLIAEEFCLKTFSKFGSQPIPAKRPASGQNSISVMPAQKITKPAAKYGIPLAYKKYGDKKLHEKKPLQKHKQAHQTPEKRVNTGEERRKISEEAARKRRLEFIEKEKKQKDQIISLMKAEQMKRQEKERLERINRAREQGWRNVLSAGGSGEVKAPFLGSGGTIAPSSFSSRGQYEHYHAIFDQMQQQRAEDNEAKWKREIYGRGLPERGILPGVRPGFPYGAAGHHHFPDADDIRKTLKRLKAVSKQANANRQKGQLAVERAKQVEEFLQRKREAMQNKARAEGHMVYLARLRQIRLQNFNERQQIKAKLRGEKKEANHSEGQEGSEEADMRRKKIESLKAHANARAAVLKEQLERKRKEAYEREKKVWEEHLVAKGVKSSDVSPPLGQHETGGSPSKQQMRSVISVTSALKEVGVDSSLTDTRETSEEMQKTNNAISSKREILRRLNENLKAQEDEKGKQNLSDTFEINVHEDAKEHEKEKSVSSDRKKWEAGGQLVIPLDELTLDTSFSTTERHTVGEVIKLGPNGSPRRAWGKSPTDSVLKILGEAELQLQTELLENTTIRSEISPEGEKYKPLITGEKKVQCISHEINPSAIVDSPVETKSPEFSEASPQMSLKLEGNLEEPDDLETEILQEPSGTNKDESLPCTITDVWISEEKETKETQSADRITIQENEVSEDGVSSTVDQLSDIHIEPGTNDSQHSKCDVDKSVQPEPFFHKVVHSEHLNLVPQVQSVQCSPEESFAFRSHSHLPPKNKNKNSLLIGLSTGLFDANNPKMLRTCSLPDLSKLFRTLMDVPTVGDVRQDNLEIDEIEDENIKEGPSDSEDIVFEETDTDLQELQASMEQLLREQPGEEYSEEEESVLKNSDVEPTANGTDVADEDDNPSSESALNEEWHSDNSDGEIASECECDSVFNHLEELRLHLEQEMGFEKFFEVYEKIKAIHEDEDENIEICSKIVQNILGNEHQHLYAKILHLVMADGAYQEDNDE

[14] = target: MAP kinase-interacting serine/threonine-protein kinase 1 (Homo sapiens) (UniProt Q9BUB5); experiment: Inhibition of MKNK1 (unknown origin) at 1 uM
[15] = target: Serine/threonine-protein kinase 25 (Homo sapiens) (UniProt O00506); experiment: Inhibition of YSK1 (unknown origin) at 1 uM
[16] = target: Myotonin-protein kinase (Homo sapiens) (UniProt Q09013); experiment: Inhibition of DMPK (unknown origin) at 1 uM
[17] = target: BDNF/NT-3 growth factors receptor (Homo sapiens) (UniProt Q16620); experiment: Inhibition of TrkB (unknown origin) at 1 uM
[18] = target: Serine/threonine-protein kinase N1 (Homo sapiens) (UniProt Q16512); experiment: Inhibition of PRK1 (unknown origin) at 1 uM
[19] = target: NUAK family SNF1-like kinase 1 (Homo sapiens) (UniProt O60285); experiment: Inhibition of ARK5 (unknown origin) at 1 uM
[20] = target: Serine/threonine-protein kinase Chk2 (Homo sapiens) (UniProt O96017); experiment: Inhibition of CHK2 (unknown origin) at 1 uM
Chain of Serine/threonine-protein kinase Chk2 (Homo sapiens) (O96017 whole entry): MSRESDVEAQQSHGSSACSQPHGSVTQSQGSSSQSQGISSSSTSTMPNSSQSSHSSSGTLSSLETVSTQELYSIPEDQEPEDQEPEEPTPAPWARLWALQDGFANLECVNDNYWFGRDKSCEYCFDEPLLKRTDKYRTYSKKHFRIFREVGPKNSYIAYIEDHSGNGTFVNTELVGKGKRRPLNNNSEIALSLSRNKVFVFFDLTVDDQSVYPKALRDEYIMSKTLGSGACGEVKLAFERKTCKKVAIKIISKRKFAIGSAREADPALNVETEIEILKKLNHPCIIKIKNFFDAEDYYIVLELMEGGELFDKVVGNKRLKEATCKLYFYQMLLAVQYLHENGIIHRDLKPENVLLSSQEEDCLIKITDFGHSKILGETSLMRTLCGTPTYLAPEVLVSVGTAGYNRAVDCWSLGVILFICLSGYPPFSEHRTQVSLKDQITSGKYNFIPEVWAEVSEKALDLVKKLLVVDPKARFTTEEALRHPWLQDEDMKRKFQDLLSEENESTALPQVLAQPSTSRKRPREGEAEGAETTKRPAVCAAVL

[21] = target: Misshapen-like kinase 1 (Homo sapiens) (UniProt Q8N4C8); experiment: Inhibition of Mink1 (unknown origin) at 1 uM
[22] = target: Cyclin-dependent kinase 5/CDK5 activator 1 (Homo sapiens) (UniProt Q00535+Q15078); experiment: Inhibition of CDK5/p25 (unknown origin) at 1 uM; format: protein-complex assay
[23] = target: CDK8/Cyclin C (Homo sapiens) (UniProt P49336+P24863); experiment: Inhibition of CDK8/cyclinC (unknown origin) at 1 uM; format: protein-complex assay
[24] = target: CDK9/cyclin T1 (Homo sapiens) (UniProt O60563+P50750); experiment: Inhibition of CDK9/cyclinT1 (unknown origin) at 1 uM; format: protein-complex assay
[25] = target: Beta-adrenergic receptor kinase 1 (Homo sapiens) (UniProt P25098); experiment: Inhibition of GRK2 (unknown origin) at 1 uM
[26] = target: Myosin light chain kinase, smooth muscle (Homo sapiens) (UniProt Q15746); experiment: Inhibition of MYLK(smMLCK) (unknown origin) at 1 uM
[27] = target: Phosphorylase b kinase gamma catalytic chain, skeletal muscle/heart isoform (Homo sapiens) (UniProt Q16816); experiment: Inhibition of PhK gamma1 (unknown origin) at 1 uM
[28] = target: Glycogen synthase kinase-3 beta (Homo sapiens) (UniProt P49841); experiment: Inhibition of GSK3 beta (unknown origin) at 1 uM
[29] = target: Mitogen-activated protein kinase 10 (Homo sapiens) (UniProt P53779); experiment: Inhibition of JNK3 (unknown origin) at 1 uM
[30] = target: Casein kinase I isoform epsilon (Homo sapiens) (UniProt P49674); experiment: Inhibition of CK1 epsilon1 (unknown origin) at 1 uM
[31] = target: Dual specificity protein kinase TTK (Homo sapiens) (UniProt P33981); experiment: Inhibition of TTK (unknown origin) at 1 uM
[32] = target: MAP kinase-activated protein kinase 3 (Homo sapiens) (UniProt Q16644); experiment: Inhibition of MAPKAPK3 (unknown origin) at 1 uM
[33] = target: Mitogen-activated protein kinase 1 (Homo sapiens) (UniProt P28482); experiment: Inhibition of ERK2 (unknown origin) at 1 uM
[34] = target: Mitogen-activated protein kinase 12 (Homo sapiens) (UniProt P53778); experiment: Inhibition of p38 gamma (unknown origin) at 1 uM
Chain of Mitogen-activated protein kinase 12 (Homo sapiens) (P53778 whole entry): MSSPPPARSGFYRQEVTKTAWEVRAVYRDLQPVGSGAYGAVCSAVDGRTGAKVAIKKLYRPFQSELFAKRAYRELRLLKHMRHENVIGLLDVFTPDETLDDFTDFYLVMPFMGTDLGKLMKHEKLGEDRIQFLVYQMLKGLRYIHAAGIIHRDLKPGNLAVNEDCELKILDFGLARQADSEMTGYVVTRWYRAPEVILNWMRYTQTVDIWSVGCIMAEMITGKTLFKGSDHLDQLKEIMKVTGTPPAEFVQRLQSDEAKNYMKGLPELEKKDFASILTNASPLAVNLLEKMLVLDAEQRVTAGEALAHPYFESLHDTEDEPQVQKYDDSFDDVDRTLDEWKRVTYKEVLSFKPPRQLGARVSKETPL

[35] = target: Serine/threonine-protein kinase Chk1 (Homo sapiens) (UniProt O14757); experiment: Inhibition of CHK1 (unknown origin) at 1 uM
[36] = target: Serine/threonine-protein kinase 4 (Homo sapiens) (UniProt Q13043); experiment: Inhibition of MST1 (unknown origin) at 1 uM
Chain of Serine/threonine-protein kinase 4 (Homo sapiens) (Q13043 whole entry): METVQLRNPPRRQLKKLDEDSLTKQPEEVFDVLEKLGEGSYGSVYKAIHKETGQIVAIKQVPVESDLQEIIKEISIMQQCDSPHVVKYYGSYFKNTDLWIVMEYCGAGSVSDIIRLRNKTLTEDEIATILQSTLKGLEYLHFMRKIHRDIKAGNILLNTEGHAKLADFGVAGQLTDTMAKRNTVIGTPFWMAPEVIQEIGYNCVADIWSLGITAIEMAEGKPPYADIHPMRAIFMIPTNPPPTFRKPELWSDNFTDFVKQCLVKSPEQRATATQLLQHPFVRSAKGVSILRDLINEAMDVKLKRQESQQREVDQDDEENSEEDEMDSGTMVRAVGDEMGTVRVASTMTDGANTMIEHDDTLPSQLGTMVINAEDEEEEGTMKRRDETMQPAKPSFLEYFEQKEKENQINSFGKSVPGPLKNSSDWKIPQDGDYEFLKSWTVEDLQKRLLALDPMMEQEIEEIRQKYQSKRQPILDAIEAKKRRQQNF

[37] = target: Activin receptor type-1B (Homo sapiens) (UniProt P36896); experiment: Inhibition of ACVR1B (unknown origin) at 1 uM
Chain of Activin receptor type-1B (Homo sapiens) (P36896 whole entry): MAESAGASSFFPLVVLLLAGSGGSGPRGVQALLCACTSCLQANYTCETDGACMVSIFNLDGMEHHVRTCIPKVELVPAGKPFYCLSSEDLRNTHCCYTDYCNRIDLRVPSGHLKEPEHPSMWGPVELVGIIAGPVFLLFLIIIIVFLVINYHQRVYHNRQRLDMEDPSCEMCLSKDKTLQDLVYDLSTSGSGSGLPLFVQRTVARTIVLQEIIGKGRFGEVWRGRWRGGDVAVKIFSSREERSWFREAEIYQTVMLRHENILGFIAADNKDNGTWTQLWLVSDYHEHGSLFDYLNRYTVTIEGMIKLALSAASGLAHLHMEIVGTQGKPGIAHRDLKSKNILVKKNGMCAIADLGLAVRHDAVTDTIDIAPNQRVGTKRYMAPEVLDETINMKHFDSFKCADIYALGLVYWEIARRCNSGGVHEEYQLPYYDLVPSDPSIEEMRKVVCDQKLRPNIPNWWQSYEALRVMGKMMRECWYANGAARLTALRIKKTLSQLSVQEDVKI

[38] = target: Serine/threonine-protein kinase MARK1 (Homo sapiens) (UniProt Q9P0L2); experiment: Inhibition of MARK1 (unknown origin) at 1 uM
Homo sapiens = species: Homo sapiens; experiment: Inhibition of PKA (unknown origin) at 1 uM
[39] = target: LIM domain kinase 1 (Homo sapiens) (UniProt P53667); experiment: Inhibition of LIMK1 (unknown origin) at 1 uM
[40] = target: Inhibitor of nuclear factor kappa-B kinase subunit epsilon (Homo sapiens) (UniProt Q14164); experiment: Inhibition of IKKepsilon (unknown origin) at 1 uM
[41] = target: Serine/threonine-protein kinase D1 (PRKD1) (Homo sapiens) (UniProt Q15139); experiment: Inhibition of PKD1 (unknown origin) at 1 uM

CLH (Liver microsome): 6 mL/min/kg
CLH (Hepatocyte): < 6 mL/min/kg
EC50 (Monocyte): 22 nM
bioavailability [1]: 26%
inhibition [2]: 35.1%
inhibition [3]: 23.1%
inhibition [4]: 6.2%
inhibition [5]: 6.1%
inhibition [6]: 5.8%
inhibition [7]: -7%
inhibition [8]: -7.7%
inhibition [9]: -8%
IC50 [10]: 230 nM
inhibition [11]: 3.2%
inhibition [12]: 3%
inhibition [13]: 1.5%
inhibition [14]: -2.8%
inhibition [15]: -3.4%
inhibition [16]: -3.6%
inhibition [17]: -3.6%
inhibition [18]: -3.7%
inhibition [19]: -3.8%
inhibition [20]: -3.8%
inhibition [21]: 17.8%
inhibition [22]: 2.4%
inhibition [23]: 1%
inhibition [24]: 1%
inhibition [25]: 0.8%
inhibition [26]: -0.8%
inhibition [27]: -1.2%
inhibition [28]: 11.1%
inhibition [29]: 10.3%
inhibition [30]: 8.6%
inhibition [31]: 7.2%
inhibition [32]: 6.9%
inhibition [33]: 6.8%
inhibition [34]: 6.5%
inhibition [35]: 4.8%
inhibition [36]: -2.6%
inhibition [37]: -3.9%
inhibition [38]: -4.7%
inhibition (Homo sapiens): -4.8%
inhibition [39]: -5.5%
inhibition [40]: -5.8%
inhibition [41]: 1.6%
SMILES: Cc1c(-c2cc(Nc3cc4n(n3)CCN(C)C4)c(=O)[nH]n2)ccc(F)c1NC(=O)c1cc2ccccc2s1
